Consider 18 compounds from patent US20250197372A1 (priority 2020, published 2025).

Holding throughout (type): biochemical
Experiment [1] addresses T1, recombinant alpha-glucosidase II (murine full-length glucosidase II, alpha and beta subunits, Glu 2) (Mus musculus, UniProt Q8BHN3).
T1 construct: made in house; host or cells: HEK-293T cells transduced with BacMam viruses (75% alpha, 25% beta); protein harvested from culture supernatant
Briefly: Alpha-glucosidase II assay (4-methylumbelliferyl-alpha-D-pyranoside substrate, fluorescence). The conditions noted are these: Glucosidase 2; read-out: Glu2 IC50.

Experiment [2] deals with recombinant human GAA (acid alpha-glucosidase) (Homo sapiens, UniProt P10253). Description: Acid alpha-glucosidase (GAA) assay (4-methylumbelliferyl-alpha-D-pyranoside substrate, fluorescence). The essentials: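 Recombinant human enzyme preincubated 60 min at 37 °C with compound dilutions, then 4-methylumbelliferyl-alpha-D-pyranoside substrate added for 20 min at 37 °C. Stopped with glycine/NaOH pH 10; methylumbelliferone fluorescence (ex 365, em 440 nm) versus untreated enzyme; IC50 by 4-PL fit.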

For experiment [3], the target named is T2, recombinant alpha-glucosidase I (human full-length glucosidase I, Glu 1) (Homo sapiens, UniProt Q13724).
T2 construct: 6-His (C); made in house; host or cells: HEK-293T cells transduced with BacMam virus (virus raised in Sf9)
T2 sequence (Q13724 1-837): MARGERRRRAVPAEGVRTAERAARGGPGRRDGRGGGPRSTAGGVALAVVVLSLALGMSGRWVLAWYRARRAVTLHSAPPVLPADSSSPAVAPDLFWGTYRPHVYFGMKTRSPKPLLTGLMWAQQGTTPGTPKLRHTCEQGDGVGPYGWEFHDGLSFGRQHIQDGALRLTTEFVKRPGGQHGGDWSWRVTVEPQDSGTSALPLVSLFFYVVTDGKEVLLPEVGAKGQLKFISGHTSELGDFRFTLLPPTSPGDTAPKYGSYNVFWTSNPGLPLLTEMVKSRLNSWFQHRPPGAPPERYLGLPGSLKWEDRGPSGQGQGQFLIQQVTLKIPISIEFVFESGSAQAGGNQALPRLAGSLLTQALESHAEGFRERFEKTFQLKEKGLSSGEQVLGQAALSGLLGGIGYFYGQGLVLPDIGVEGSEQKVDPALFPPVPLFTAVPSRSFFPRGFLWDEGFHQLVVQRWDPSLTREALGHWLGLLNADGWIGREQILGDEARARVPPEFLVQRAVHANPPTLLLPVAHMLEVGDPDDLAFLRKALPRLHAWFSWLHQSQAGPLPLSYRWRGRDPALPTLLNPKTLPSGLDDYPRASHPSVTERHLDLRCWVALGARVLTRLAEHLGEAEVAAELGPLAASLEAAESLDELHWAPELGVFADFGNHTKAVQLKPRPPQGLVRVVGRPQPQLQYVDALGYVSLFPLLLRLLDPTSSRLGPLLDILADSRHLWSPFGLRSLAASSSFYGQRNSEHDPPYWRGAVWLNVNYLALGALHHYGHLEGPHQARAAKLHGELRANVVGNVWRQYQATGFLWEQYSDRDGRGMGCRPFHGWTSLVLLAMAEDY
Description: Alpha-glucosidase I assay (Amplex Red glucose detection, synthetic trisaccharide substrate). As to conditions: Glucosidase 1; read-out: Glu 1 IC50. The procedure, abridged: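 Human full-length glucosidase I, His-tagged, […] and Ni-purified. Enzyme preincubated with compound dilutions 60 min at 37° C, then synthetic trisaccharide substrate 90 min at 37° C; stopped with 1.5M Tris pH 8.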

T1 sequence (O08795 15-521): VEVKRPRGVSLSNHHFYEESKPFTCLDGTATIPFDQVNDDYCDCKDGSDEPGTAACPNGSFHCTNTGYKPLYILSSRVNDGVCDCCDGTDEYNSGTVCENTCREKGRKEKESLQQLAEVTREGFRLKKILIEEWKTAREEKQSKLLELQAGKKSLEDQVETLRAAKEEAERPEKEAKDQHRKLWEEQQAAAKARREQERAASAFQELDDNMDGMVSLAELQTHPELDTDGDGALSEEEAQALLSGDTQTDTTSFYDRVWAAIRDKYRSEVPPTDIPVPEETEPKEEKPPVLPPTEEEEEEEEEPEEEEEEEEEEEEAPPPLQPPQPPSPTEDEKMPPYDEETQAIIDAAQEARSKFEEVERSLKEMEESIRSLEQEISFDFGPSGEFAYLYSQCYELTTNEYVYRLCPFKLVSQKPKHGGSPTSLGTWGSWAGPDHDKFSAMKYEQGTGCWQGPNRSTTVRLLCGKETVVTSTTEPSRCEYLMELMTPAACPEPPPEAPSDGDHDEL
T1 sequence (Q8BHN3 33-944): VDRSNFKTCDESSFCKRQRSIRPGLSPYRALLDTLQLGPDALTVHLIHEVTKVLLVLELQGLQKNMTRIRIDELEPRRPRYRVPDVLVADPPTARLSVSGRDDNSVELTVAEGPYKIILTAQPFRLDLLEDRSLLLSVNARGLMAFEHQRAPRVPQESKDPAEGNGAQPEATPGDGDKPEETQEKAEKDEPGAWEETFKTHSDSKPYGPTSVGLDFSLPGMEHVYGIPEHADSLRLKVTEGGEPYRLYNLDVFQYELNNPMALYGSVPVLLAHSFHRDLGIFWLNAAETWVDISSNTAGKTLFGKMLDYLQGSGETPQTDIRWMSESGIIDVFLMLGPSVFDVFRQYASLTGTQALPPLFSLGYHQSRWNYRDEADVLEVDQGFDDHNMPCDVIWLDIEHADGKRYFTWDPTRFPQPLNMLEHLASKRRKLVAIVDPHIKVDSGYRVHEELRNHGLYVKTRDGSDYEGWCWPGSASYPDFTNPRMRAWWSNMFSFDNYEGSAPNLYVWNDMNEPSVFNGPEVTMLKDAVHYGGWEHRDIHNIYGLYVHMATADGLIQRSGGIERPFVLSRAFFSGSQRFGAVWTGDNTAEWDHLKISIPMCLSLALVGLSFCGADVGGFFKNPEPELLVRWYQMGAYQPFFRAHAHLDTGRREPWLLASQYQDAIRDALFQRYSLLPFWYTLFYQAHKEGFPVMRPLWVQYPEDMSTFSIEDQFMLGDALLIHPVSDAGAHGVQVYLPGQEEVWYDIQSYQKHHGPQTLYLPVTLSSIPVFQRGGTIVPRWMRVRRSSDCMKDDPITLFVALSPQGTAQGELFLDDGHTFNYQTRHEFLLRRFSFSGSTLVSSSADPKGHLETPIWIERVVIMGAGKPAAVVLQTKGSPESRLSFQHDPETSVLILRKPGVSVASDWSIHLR

Take `OC[C@@H]1[C@@H](O)[C@H](O)[C@@H](O)CN1Cc1ccc(CNc2ccc(CN3CCCO3)cc2)cc1` [Compound 1092, (2R,3R,4R,5S)-2-(hydroxymethyl)-1-({4-[({4-[(1,2-oxazolidin-2-yl)methyl]phenyl}amino)methyl]phenyl}methyl)piperidine-3,4,5-triol]: the IC50 – broadly, the concentration that inhibits the measured activity by half – is 1780 nM in experiment [1], 786 nM in experiment [2] and 59 nM in experiment [3].
Consider `OC[C@@H]1[C@@H](O)[C@H](O)[C@@H](O)CN1Cc1ccc(CNc2ccc(-c3ncccn3)cc2)cc1` [Compound 1096, (2R,3R,4R,5S)-2-(hydroxymethyl)-1-{[4-({[4-(pyrimidin-2-yl)phenyl]amino}methyl)phenyl]methyl}piperidine-3,4,5-triol], for which the half-maximal inhibitory concentration (IC50) in experiment [1] was 1430 nM; in experiment [2] it was 259 nM; in experiment [3], 15 nM.
As to `CC(C)c1cc(CCNc2ccc(N=[N+]=[N-])cc2[N+](=O)[O-])cc(CCN2C[C@H](O)[C@@H](O)[C@H](O)[C@H]2CO)c1` [Compound 1077, (2R,3R,4R,5S)-1-[2-(3-{2-[(4-azido-2-nitrophenyl)amino]ethyl}-5-(propan-2-yl)phenyl)ethyl]-2-(hydroxymethyl)piperidine-3,4,5-triol], the IC50 amounted to 203 nM in experiment [1], 10000 nM in experiment [2] and 697 nM in experiment [3].
For `O=[N+]([O-])c1cc(-c2ccncc2)ccc1NCCc1ccc(CCN2C[C@H](O)[C@@H](O)[C@H](O)[C@H]2CO)cc1` [Compound 1110, (2R,3R,4R,5S)-2-(hydroxymethyl)-1-{2-[4-(2-{[2-nitro-4-(pyridin-4-yl)phenyl]amino}ethyl)phenyl]ethyl}piperidine-3,4,5-triol], the figures for the IC50 in experiment [1], in experiment [2] and in experiment [3] were < 1 nM, 7 nM and < 1 nM, respectively.
On to `OC[C@@H]1[C@@H](O)[C@H](O)[C@@H](O)CN1CCc1ccc(CCNc2cc(Cl)cc(-c3noc(C4CCC4)n3)c2)cc1` [Compound 1122, (2R,3R,4R,5S)-1-{2-[4-(2-{[3-chloro-5-(5-cyclobutyl-1,2,4-oxadiazol-3-yl)phenyl]amino}ethyl)phenyl]ethyl}-2-(hydroxymethyl)piperidine-3,4,5-triol], for which the IC50 in experiment [1] came to 294 nM; in experiment [2], 558 nM; in experiment [3], 1160 nM.
For `O=S(=O)(Nc1cc(NCCCCCCN2C[C@H](O)[C@@H](O)[C@H](O)[C@H]2CO)cc(-c2ncccn2)c1)C1CC1` [Compound 1114, N-[3-(pyrimidin-2-yl)-5-({6-[(2R,3R,4R,5S)-3,4,5-trihydroxy-2-(hydroxymethyl)piperidin-1-yl]hexyl}amino)phenyl]cyclopropanesulfonamide], the results for the half-inhibitory concentration (IC50) in experiment [1], in experiment [2] and in experiment [3] were 3 nM, 16 nM and 108 nM, respectively.
In the case of `O=[N+]([O-])c1cc(CN2CCCO2)ccc1NCc1cccc(CN2C[C@H](O)[C@@H](O)[C@H](O)[C@H]2CO)c1` [Compound 1086], the concentration for half-maximal inhibition (IC50) in experiment [1] was 44200 nM; in experiment [2], 976 nM; in experiment [3], 132 nM.
`Cc1cc(NCc2ccc(CN3C[C@H](O)[C@@H](O)[C@H](O)[C@H]3CO)cc2)cc(C2=COCCO2)c1` [Compound 1050, (2R,3R,4R,5S)-1-{[4-({[3-(5,6-dihydro-1,4-dioxin-2-yl)-5-methylphenyl]amino}methyl)phenyl]methyl}-2-(hydroxymethyl)piperidine-3,4,5-triol]: the IC50 in experiment [1] is 3 nM; in experiment [2], 278 nM; in experiment [3], 32 nM.
On to `CS(=O)(=O)c1cc(NCc2ccc(CN3C[C@H](O)[C@@H](O)[C@H](O)[C@H]3CO)cc2)cc(-c2ncccn2)c1` [Compound 1059, (2R,3R,4R,5S)-2-(hydroxymethyl)-1-{[4-({[3-methanesulfonyl-5-(pyrimidin-2-yl)phenyl]amino}methyl)phenyl]methyl}piperidine-3,4,5-triol], for which the IC50 in experiment [1] amounted to 58 nM; in experiment [2] it was 74 nM; in experiment [3] it was 33 nM.
For the compound `OC[C@@H]1[C@@H](O)[C@H](O)[C@@H](O)CN1Cc1cccc(CNc2ccc(-c3cccnn3)cc2)c1` [Compound 1083, (2R,3R,4R,5S)-2-(hydroxymethyl)-1-{[3-({[4-(pyridazin-3-yl)phenyl]amino}methyl)phenyl]methyl}piperidine-3,4,5-triol], the IC50 in experiment [1] is 9990 nM; in experiment [2] it was 1950 nM; in experiment [3] it was 72 nM.
Regarding `[N-]=[N+]=Nc1ccc(NCC[C@H]2CC[C@@H](CCN3C[C@H](O)[C@@H](O)[C@H](O)[C@H]3CO)CC2)c([N+](=O)[O-])c1` [Compound 1106, (2R,3R,4R,5S)-2-(hydroxymethyl)-1-{2-[(1s,4s)-4-{2-[(4-azido-2-nitrophenyl)amino]ethyl}cyclohexyl]ethyl}piperidine-3,4,5-triol], the values for the IC50 in experiment [1], in experiment [2] and in experiment [3] were 9 nM, 36 nM and < 1 nM, respectively.
Consider `N#Cc1cc(NCc2ccc(CN3C[C@H](O)[C@@H](O)[C@H](O)[C@H]3CO)cc2)cc(-c2ccc[nH]2)c1` [Compound 1063, 3-(1H-pyrrol-2-yl)-5-{[(4-{[(2R,3R,4R,5S)-3,4,5-trihydroxy-2-(hydroxymethyl)piperidin-1-yl]methyl}phenyl)methyl]amino}-benzonitrile], for which the IC50 in experiment [1] is 70 nM; in experiment [2], 32 nM; in experiment [3], 1 nM.
As for `[N-]=[N+]=Nc1ccc(NCCC23CC(CCN4C[C@H](O)[C@@H](O)[C@H](O)[C@H]4CO)(C2)C3)c([N+](=O)[O-])c1` [Compound 1103, (2R,3R,4R,5S)-1-[2-(3-{2-[(4-azido-2-nitrophenyl)amino]ethyl}bicyclo[1.1.1]pentan-1-yl)ethyl]-2-(hydroxymethyl)piperidine-3,4,5-triol], the IC50 in experiment [1] was 5 nM; in experiment [2] it was 2660 nM; in experiment [3], 267 nM.
The like results for `OC[C@@H]1[C@@H](O)[C@H](O)[C@@H](O)CN1CCc1cn(CCNc2ccccc2)c2ccccc12` [Compound 1076, (2R,3R,4R,5S)-2-(hydroxymethyl)-1-(2-{1-[2-(phenylamino)ethyl]-1H-indol-3-yl}ethyl)piperidine-3,4,5-triol] were, in that order, 66 nM, 4260 nM and 1310 nM.
In the case of `O=[N+]([O-])c1cc(-c2ccc[nH]2)ccc1NCc1cccc(CN2C[C@H](O)[C@@H](O)[C@H](O)[C@H]2CO)c1` [Compound 1088, (2R,3R,4R,5S)-2-(hydroxymethyl)-1-{[3-({[2-nitro-4-(1H-pyrrol-2-yl)phenyl]amino}methyl)phenyl]methyl}piperidine-3,4,5-triol], the results for the IC50 in experiment [1], in experiment [2] and in experiment [3] were 6360 nM, 1950 nM and < 1 nM, respectively.
For `O=C(O)c1cc(NCCCCCCN2C[C@H](O)[C@@H](O)[C@H](O)[C@H]2CO)cc(-c2ncccn2)c1` [Compound 1118, 3-(pyrimidin-2-yl)-5-({6-[(2R,3R,4R,5S)-3,4,5-trihydroxy-2-(hydroxymethyl)piperidin-1-yl]hexyl}amino) benzoic acid] the same measures were 5 nM, 27 nM and 10 nM.
As to `N#Cc1cc(NCc2ccc(CN3C[C@H](O)[C@@H](O)[C@H](O)[C@H]3CO)cc2)cc(C2=COCCO2)c1` [Compound 1062, 3-(5,6-dihydro-1,4-dioxin-2-yl)-5-{[(4-{[(2R,3R,4R,5S)-3,4,5-trihydroxy-2-(hydroxymethyl)piperidin-1-yl]methyl}phenyl)-methyl]amino}benzonitrile], the values for the IC50 in experiment [1], in experiment [2] and in experiment [3] were < 1 nM, 68 nM and 1 nM, respectively.
In the case of `N#Cc1cc(NCc2ccc(CN3C[C@H](O)[C@@H](O)[C@H](O)[C@H]3CO)cc2)cc(N2CCOCC2)c1` [Compound 1060, 3-(morpholin-4-yl)-5-{[(4-{[(2R,3R,4R,5S)-3,4,5-trihydroxy-2-(hydroxymethyl)piperidin-1-yl]methyl}phenyl)methyl]amino}-benzonitrile], the figures for the concentration for half-maximal inhibition (IC50) in experiment [1], in experiment [2] and in experiment [3] were 262 nM, 86 nM and 41 nM, respectively.
